# Reference: the NIST ThermoML archive (doi:10.1016/j.jct.2019.03.023)
# Where “and” joins values, the source holds several entries; their conditions need not be identical. Equal values may be shown once. Numbers after ± are expanded uncertainties.
# Test: molar heat capacity at constant volume
# Settings: Vacuum adiabatic calorimetry
structure (smiles),measurement,setting,value
CC(C)O [propan-2-ol],molar heat capacity at constant volume,"314.29 K, Fluid (supercritical or subcritical phases), Mass density=329.2 kg/m3",177.46 ± 5.3 J/K/mol
same,molar heat capacity at constant volume,"314.52 K, Fluid (supercritical or subcritical phases), Mass density=329.2 kg/m3",182.81 ± 5.5 J/K/mol
same,molar heat capacity at constant volume,"314.8 K, Fluid (supercritical or subcritical phases), Mass density=329.2 kg/m3",184.67 ± 5.5 J/K/mol
same,molar heat capacity at constant volume,"315.05 K, Fluid (supercritical or subcritical phases), Mass density=329.2 kg/m3",181.49 ± 5.5 J/K/mol
same,molar heat capacity at constant volume,"315.3 K, Fluid (supercritical or subcritical phases), Mass density=329.2 kg/m3",177.88 ± 5.3 J/K/mol
same,molar heat capacity at constant volume,"315.42 K, Fluid (supercritical or subcritical phases), Mass density=329.2 kg/m3",176.26 ± 5.3 J/K/mol
same,molar heat capacity at constant volume,"315.61 K, Fluid (supercritical or subcritical phases), Mass density=329.2 kg/m3",174.88 ± 5.2 J/K/mol
same,molar heat capacity at constant volume,"315.8 K, Fluid (supercritical or subcritical phases), Mass density=329.2 kg/m3",178.6 ± 5.3 J/K/mol
same,molar heat capacity at constant volume,"317.44 K, Fluid (supercritical or subcritical phases), Mass density=697.69 kg/m3",170.85 ± 5.1 J/K/mol
same,molar heat capacity at constant volume,"317.57 K, Fluid (supercritical or subcritical phases), Mass density=697.69 kg/m3",172.41 ± 5.2 J/K/mol
same,molar heat capacity at constant volume,"317.7 K, Fluid (supercritical or subcritical phases), Mass density=697.69 kg/m3",172.71 ± 5.2 J/K/mol
same,molar heat capacity at constant volume,"317.95 K, Fluid (supercritical or subcritical phases), Mass density=697.69 kg/m3",168.15 ± 5 J/K/mol
same,molar heat capacity at constant volume,"318.07 K, Fluid (supercritical or subcritical phases), Mass density=697.69 kg/m3",168.15 ± 5 J/K/mol
same,molar heat capacity at constant volume,"318.2 K, Fluid (supercritical or subcritical phases), Mass density=697.69 kg/m3",171.69 ± 5.2 J/K/mol
same,molar heat capacity at constant volume,"318.32 K, Fluid (supercritical or subcritical phases), Mass density=697.69 kg/m3",171.33 ± 5.2 J/K/mol
same,molar heat capacity at constant volume,"318.45 K, Fluid (supercritical or subcritical phases), Mass density=697.69 kg/m3",173.98 ± 5.2 J/K/mol
same,molar heat capacity at constant volume,"318.57 K, Fluid (supercritical or subcritical phases), Mass density=697.69 kg/m3",170.25 ± 5.1 J/K/mol
same,molar heat capacity at constant volume,"318.7 K, Fluid (supercritical or subcritical phases), Mass density=697.69 kg/m3",175.24 ± 5.3 J/K/mol
same,molar heat capacity at constant volume,"331.87 K, Fluid (supercritical or subcritical phases), Mass density=697.69 kg/m3",192 ± 5.8 J/K/mol
same,molar heat capacity at constant volume,"332.06 K, Fluid (supercritical or subcritical phases), Mass density=697.69 kg/m3",191.34 ± 5.8 J/K/mol
same,molar heat capacity at constant volume,"332.12 K, Fluid (supercritical or subcritical phases), Mass density=697.69 kg/m3",189.48 ± 5.7 J/K/mol
same,molar heat capacity at constant volume,"332.24 K, Fluid (supercritical or subcritical phases), Mass density=697.69 kg/m3",188.82 ± 5.6 J/K/mol
same,molar heat capacity at constant volume,"332.36 K, Fluid (supercritical or subcritical phases), Mass density=697.69 kg/m3",187.74 ± 5.6 J/K/mol
same,molar heat capacity at constant volume,"332.48 K, Fluid (supercritical or subcritical phases), Mass density=697.69 kg/m3",189.96 ± 5.7 J/K/mol
same,molar heat capacity at constant volume,"332.6 K, Fluid (supercritical or subcritical phases), Mass density=697.69 kg/m3",190.26 ± 5.7 J/K/mol
same,molar heat capacity at constant volume,"332.72 K, Fluid (supercritical or subcritical phases), Mass density=697.69 kg/m3",187.74 ± 5.6 J/K/mol
same,molar heat capacity at constant volume,"332.85 K, Fluid (supercritical or subcritical phases), Mass density=697.69 kg/m3",192.36 ± 5.8 J/K/mol
same,molar heat capacity at constant volume,"333.03 K, Fluid (supercritical or subcritical phases), Mass density=697.69 kg/m3",188.7 ± 5.6 J/K/mol
same,molar heat capacity at constant volume,"340.8 K, Fluid (supercritical or subcritical phases), Mass density=697.69 kg/m3",195.19 ± 5.9 J/K/mol
same,molar heat capacity at constant volume,"340.92 K, Fluid (supercritical or subcritical phases), Mass density=697.69 kg/m3",192.6 ± 5.8 J/K/mol
same,molar heat capacity at constant volume,"341.04 K, Fluid (supercritical or subcritical phases), Mass density=697.69 kg/m3",196.99 ± 5.9 J/K/mol
same,molar heat capacity at constant volume,"341.16 K, Fluid (supercritical or subcritical phases), Mass density=697.69 kg/m3",193.33 ± 5.8 J/K/mol
same,molar heat capacity at constant volume,"341.28 K, Fluid (supercritical or subcritical phases), Mass density=697.69 kg/m3",197.83 ± 5.9 J/K/mol
same,molar heat capacity at constant volume,"341.4 K, Fluid (supercritical or subcritical phases), Mass density=697.69 kg/m3",196.15 ± 5.9 J/K/mol
same,molar heat capacity at constant volume,"341.52 K, Fluid (supercritical or subcritical phases), Mass density=697.69 kg/m3",194.89 ± 5.8 J/K/mol
same,molar heat capacity at constant volume,"341.64 K, Fluid (supercritical or subcritical phases), Mass density=697.69 kg/m3",195.13 ± 5.9 J/K/mol
same,molar heat capacity at constant volume,"341.76 K, Fluid (supercritical or subcritical phases), Mass density=697.69 kg/m3",196.21 ± 5.9 J/K/mol
same,molar heat capacity at constant volume,"341.91 K, Fluid (supercritical or subcritical phases), Mass density=329.2 kg/m3",203.12 ± 6.1 J/K/mol
same,molar heat capacity at constant volume,"342.08 K, Fluid (supercritical or subcritical phases), Mass density=329.2 kg/m3",202.22 ± 6.1 J/K/mol
same,molar heat capacity at constant volume,"342.19 K, Fluid (supercritical or subcritical phases), Mass density=329.2 kg/m3",203.54 ± 6.1 J/K/mol
same,molar heat capacity at constant volume,"342.32 K, Fluid (supercritical or subcritical phases), Mass density=329.2 kg/m3",207.27 ± 6.2 J/K/mol
same,molar heat capacity at constant volume,"342.49 K, Fluid (supercritical or subcritical phases), Mass density=329.2 kg/m3",201.32 ± 6.1 J/K/mol
same,molar heat capacity at constant volume,"342.67 K, Fluid (supercritical or subcritical phases), Mass density=329.2 kg/m3",203.72 ± 6.1 J/K/mol
same,molar heat capacity at constant volume,"342.79 K, Fluid (supercritical or subcritical phases), Mass density=329.2 kg/m3",202.76 ± 6.1 J/K/mol
same,molar heat capacity at constant volume,"342.91 K, Fluid (supercritical or subcritical phases), Mass density=329.2 kg/m3",201.62 ± 6.1 J/K/mol
same,molar heat capacity at constant volume,"343.03 K, Fluid (supercritical or subcritical phases), Mass density=329.2 kg/m3",204.08 ± 6.1 J/K/mol
same,molar heat capacity at constant volume,"355.67 K, Fluid (supercritical or subcritical phases), Mass density=697.69 kg/m3",207.33 ± 6.2 J/K/mol
same,molar heat capacity at constant volume,"355.78 K, Fluid (supercritical or subcritical phases), Mass density=697.69 kg/m3",211.29 ± 6.4 J/K/mol
same,molar heat capacity at constant volume,"355.9 K, Fluid (supercritical or subcritical phases), Mass density=697.69 kg/m3",211.9 ± 6.4 J/K/mol
same,molar heat capacity at constant volume,"356.02 K, Fluid (supercritical or subcritical phases), Mass density=697.69 kg/m3",209.49 ± 6.3 J/K/mol
same,molar heat capacity at constant volume,"356.13 K, Fluid (supercritical or subcritical phases), Mass density=697.69 kg/m3",211.11 ± 6.4 J/K/mol
same,molar heat capacity at constant volume,"356.25 K, Fluid (supercritical or subcritical phases), Mass density=697.69 kg/m3",212.68 ± 6.4 J/K/mol
same,molar heat capacity at constant volume,"356.37 K, Fluid (supercritical or subcritical phases), Mass density=697.69 kg/m3",211.77 ± 6.4 J/K/mol
same,molar heat capacity at constant volume,"356.48 K, Fluid (supercritical or subcritical phases), Mass density=697.69 kg/m3",211.96 ± 6.4 J/K/mol
same,molar heat capacity at constant volume,"369.05 K, Fluid (supercritical or subcritical phases), Mass density=329.2 kg/m3",225.9 ± 6.8 J/K/mol
same,molar heat capacity at constant volume,"369.16 K, Fluid (supercritical or subcritical phases), Mass density=329.2 kg/m3",220.01 ± 6.6 J/K/mol
same,molar heat capacity at constant volume,"369.28 K, Fluid (supercritical or subcritical phases), Mass density=329.2 kg/m3",231.31 ± 7 J/K/mol
same,molar heat capacity at constant volume,"369.39 K, Fluid (supercritical or subcritical phases), Mass density=329.2 kg/m3",222.83 ± 6.7 J/K/mol
same,molar heat capacity at constant volume,"369.5 K, Fluid (supercritical or subcritical phases), Mass density=329.2 kg/m3",225.96 ± 6.8 J/K/mol
same,molar heat capacity at constant volume,"369.67 K, Fluid (supercritical or subcritical phases), Mass density=329.2 kg/m3",223.55 ± 6.7 J/K/mol
same,molar heat capacity at constant volume,"369.84 K, Fluid (supercritical or subcritical phases), Mass density=329.2 kg/m3",221.75 ± 6.7 J/K/mol
same,molar heat capacity at constant volume,"369.96 K, Fluid (supercritical or subcritical phases), Mass density=329.2 kg/m3",221.03 ± 6.6 J/K/mol
same,molar heat capacity at constant volume,"370.07 K, Fluid (supercritical or subcritical phases), Mass density=329.2 kg/m3",219.47 ± 6.6 J/K/mol
same,molar heat capacity at constant volume,"370.24 K, Fluid (supercritical or subcritical phases), Mass density=697.69 kg/m3",222.11 ± 6.7 J/K/mol
same,molar heat capacity at constant volume,"370.36 K, Fluid (supercritical or subcritical phases), Mass density=697.69 kg/m3",222.41 ± 6.7 J/K/mol
same,molar heat capacity at constant volume,"370.47 K, Fluid (supercritical or subcritical phases), Mass density=697.69 kg/m3",220.43 ± 6.6 J/K/mol
same,molar heat capacity at constant volume,"370.58 K, Fluid (supercritical or subcritical phases), Mass density=697.69 kg/m3",219.77 ± 6.6 J/K/mol
same,molar heat capacity at constant volume,"370.7 K, Fluid (supercritical or subcritical phases), Mass density=697.69 kg/m3",222.05 ± 6.7 J/K/mol
same,molar heat capacity at constant volume,"370.81 K, Fluid (supercritical or subcritical phases), Mass density=697.69 kg/m3",222.29 ± 6.7 J/K/mol
same,molar heat capacity at constant volume,"370.92 K, Fluid (supercritical or subcritical phases), Mass density=697.69 kg/m3",220.61 ± 6.6 J/K/mol
same,molar heat capacity at constant volume,"371.04 K, Fluid (supercritical or subcritical phases), Mass density=697.69 kg/m3",221.57 ± 6.7 J/K/mol
same,molar heat capacity at constant volume,"378.45 K, Fluid (supercritical or subcritical phases), Mass density=697.69 kg/m3",221.99 ± 6.7 J/K/mol
same,molar heat capacity at constant volume,"378.57 K, Fluid (supercritical or subcritical phases), Mass density=697.69 kg/m3",220.67 ± 6.6 J/K/mol
same,molar heat capacity at constant volume,"378.68 K, Fluid (supercritical or subcritical phases), Mass density=697.69 kg/m3",223.19 ± 6.7 J/K/mol
same,molar heat capacity at constant volume,"378.79 K, Fluid (supercritical or subcritical phases), Mass density=697.69 kg/m3",223.37 ± 6.7 J/K/mol
same,molar heat capacity at constant volume,"378.9 K, Fluid (supercritical or subcritical phases), Mass density=697.69 kg/m3",220.97 ± 6.6 J/K/mol
same,molar heat capacity at constant volume,"379.01 K, Fluid (supercritical or subcritical phases), Mass density=697.69 kg/m3",222.41 ± 6.7 J/K/mol
same,molar heat capacity at constant volume,"379.24 K, Fluid (supercritical or subcritical phases), Mass density=697.69 kg/m3",222.71 ± 6.7 J/K/mol
same,molar heat capacity at constant volume,"379.35 K, Fluid (supercritical or subcritical phases), Mass density=697.69 kg/m3",221.33 ± 6.7 J/K/mol
same,molar heat capacity at constant volume,"379.46 K, Fluid (supercritical or subcritical phases), Mass density=697.69 kg/m3",221.99 ± 6.7 J/K/mol
same,molar heat capacity at constant volume,"379.57 K, Fluid (supercritical or subcritical phases), Mass density=697.69 kg/m3",220.55 ± 6.6 J/K/mol
same,molar heat capacity at constant volume,"379.68 K, Fluid (supercritical or subcritical phases), Mass density=697.69 kg/m3",222.53 ± 6.7 J/K/mol
same,molar heat capacity at constant volume,"379.79 K, Fluid (supercritical or subcritical phases), Mass density=697.69 kg/m3",221.81 ± 6.7 J/K/mol
same,molar heat capacity at constant volume,"379.9 K, Fluid (supercritical or subcritical phases), Mass density=697.69 kg/m3",222.53 ± 6.7 J/K/mol
same,molar heat capacity at constant volume,"380.02 K, Fluid (supercritical or subcritical phases), Mass density=697.69 kg/m3",224.03 ± 6.7 J/K/mol
same,molar heat capacity at constant volume,"380.13 K, Fluid (supercritical or subcritical phases), Mass density=697.69 kg/m3",223.07 ± 6.7 J/K/mol
same,molar heat capacity at constant volume,"380.24 K, Fluid (supercritical or subcritical phases), Mass density=697.69 kg/m3",222.05 ± 6.7 J/K/mol
same,molar heat capacity at constant volume,"380.35 K, Fluid (supercritical or subcritical phases), Mass density=697.69 kg/m3",223.97 ± 6.7 J/K/mol and 182.81 ± 5.5 J/K/mol
same,molar heat capacity at constant volume,"380.35 K, Liquid",182.81 ± 5.5 J/K/mol
same,molar heat capacity at constant volume,"380.42 K, Fluid (supercritical or subcritical phases), Mass density=697.69 kg/m3",185.51 ± 5.6 J/K/mol
same,molar heat capacity at constant volume,"380.56 K, Fluid (supercritical or subcritical phases), Mass density=697.69 kg/m3",185.69 ± 5.6 J/K/mol
same,molar heat capacity at constant volume,"380.68 K, Fluid (supercritical or subcritical phases), Mass density=697.69 kg/m3",187.44 ± 5.6 J/K/mol
